The results in this text go back to patent US10093678B2, “Azaspiro derivatives as TRPM8 antagonists” (RaQualia Pharma Inc., priority 2014, dated 2018).

Series [1] can be described thus: Metabolic stability assay: half-life in human liver microsomes (HLM). The series is classed as in vitro ADME. The protocol:
Metabolic Stability Assay:
Half-Life in Human Liver Microsomes (HLM)
Test compounds (1 microM) are incubated with 1 mM MgCl2 and 0.78 mg/mL HLM (HL101) or 0.74 mg/mL HLM (Gentest UltraPool 150) or 0.61 mg/mL HLM (XenoTech XTreme 200) in 100 mM potassium phosphate buffer (pH 7.4) at 37° C. on the 96-deep well plate. The reaction mixture is split into two groups, a non-P450 and a P450 groupon necessary. NADPH is only added to the reaction mixture of the P450 group. (NADPH generation system is also used instead of NADPH.) An aliquot of samples of P450 group is collected at 0, 10, 30, and 60 min time point, where 0 min time point indicated the time when NADPH is added into the reaction mixture of P450 group. An aliquot of samples of non-P450 group is collected at −10 and 65 min time point. Collected aliquots are extracted with acetonitrile solution containing an internal standard. The precipitated protein is spun down in centrifuge (2000 rpm, 15 min). The compound concentration in supernatant is measured by LC/MS/MS system.
The half-life value is obtained by plotting the natural logarithm of the peak area ratio of compounds/internal standard versus time. The slope of the line of best fit through the points yield the rate of metabolism (k). This is converted to a half-life value using following equations: Half-life=ln 2/k {Math. 4}

Series [2] addresses T1, Human HERG (Homo sapiens, UniProt Q12809).
T1 construct: expressed in transfected cells; host or cells: HEK293S (membrane homogenate)
Description: Human dofetilide binding assay. The note with it: Human HERG transfected HEK293S cell membranes. Here is the method: Human Dofetilide Binding Assay
Human HERG transfected HEK293S cells are prepared and grown in-house. The collected cells are suspended in 50 mM Tris-HCl (pH 7.4 at 4° C.) and homogenized using a hand held Polytron PT 1200 disruptor set at full power for 20 sec on ice. The homogenates are centrifuged at 48,000×g at 4° C. for 20 min. The pellets are then resuspended, homogenized, and centrifuged once more in the same manner. The final pellets are resuspended in an appropriate volume of 50 mM Tris-HCl, 10 mM KCl, 1 mM MgCl2 (pH 7.4 at 4° C.), homogenized, aliquoted and stored at −80° C. until use. An aliquot of membrane fractions is used for protein concentration determination using BCA protein assay kit (PIERCE) and ARVOsx plate reader (Wallac). Binding assays are conducted in a total volume of 30 microL in 384-well plates. The activity is measured by PHERAstar (BMG LABTECH) using fluorescence polarization technology. Ten microL of test compounds are incubated with 10 microL of fluorescence ligand (6 nM Cy3B tagged dofetilide derivative) and 10 microL of membrane homogenate (6 microgram protein) for 120 minutes at room temperature. Nonspecific binding is determined by 10 microM E4031 at the final concentration.

Series [3] concerns the target T2, human TRPM8 (Homo sapiens, UniProt Q7Z2W7).
T2 construct: expressed in transfected cells; host or cells: HEK293
The series can be described thus: Menthol-induced Ca2+ influx in HEK293 cells stably expressing human TRPM8. The note with it: 30 microM menthol-induced Ca2+ influx, read-out: IC50 against TRPM8. The series is classed as cell-based. The procedure, abridged:
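IC50 values were fitted from 11-point dose-response data averaged over duplicate wells. Compound was added for 5 min to Fluo4-loaded HEK293 cells carrying stable human TRPM8, in HBSS/HEPES pH 7.4 with probenecid. Intracellular Ca2+ change after 30 microM menthol addition was then imaged on FDSS.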

T2 sequence (Q7Z2W7 whole entry): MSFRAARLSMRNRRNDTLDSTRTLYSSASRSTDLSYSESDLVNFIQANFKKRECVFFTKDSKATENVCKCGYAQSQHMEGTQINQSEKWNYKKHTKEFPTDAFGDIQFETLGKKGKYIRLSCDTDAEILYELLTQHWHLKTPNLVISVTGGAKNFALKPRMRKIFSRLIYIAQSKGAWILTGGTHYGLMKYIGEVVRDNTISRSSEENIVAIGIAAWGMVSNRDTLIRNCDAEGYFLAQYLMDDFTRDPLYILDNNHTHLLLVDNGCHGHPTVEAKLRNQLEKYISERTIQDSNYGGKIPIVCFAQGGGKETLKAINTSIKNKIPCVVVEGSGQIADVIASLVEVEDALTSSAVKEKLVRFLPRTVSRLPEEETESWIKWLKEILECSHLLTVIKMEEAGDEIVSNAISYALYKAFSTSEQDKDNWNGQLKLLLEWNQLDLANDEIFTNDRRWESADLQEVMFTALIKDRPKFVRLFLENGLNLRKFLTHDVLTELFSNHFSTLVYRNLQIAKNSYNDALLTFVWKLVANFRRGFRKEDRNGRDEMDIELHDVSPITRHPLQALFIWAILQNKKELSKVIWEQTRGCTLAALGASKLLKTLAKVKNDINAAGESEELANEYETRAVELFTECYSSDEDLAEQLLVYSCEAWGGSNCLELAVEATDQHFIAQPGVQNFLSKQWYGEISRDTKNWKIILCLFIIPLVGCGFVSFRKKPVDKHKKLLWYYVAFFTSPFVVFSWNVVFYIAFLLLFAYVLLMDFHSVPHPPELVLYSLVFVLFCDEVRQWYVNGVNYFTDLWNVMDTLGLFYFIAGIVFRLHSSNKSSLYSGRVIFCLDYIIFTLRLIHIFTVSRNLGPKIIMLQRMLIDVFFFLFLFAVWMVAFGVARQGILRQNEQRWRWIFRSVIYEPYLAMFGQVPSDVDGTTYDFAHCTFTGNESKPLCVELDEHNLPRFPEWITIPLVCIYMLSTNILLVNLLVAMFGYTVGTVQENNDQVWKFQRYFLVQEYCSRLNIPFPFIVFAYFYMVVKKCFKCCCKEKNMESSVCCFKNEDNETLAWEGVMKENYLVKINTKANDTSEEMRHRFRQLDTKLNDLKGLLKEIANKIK
T1 sequence (Q12809 whole entry): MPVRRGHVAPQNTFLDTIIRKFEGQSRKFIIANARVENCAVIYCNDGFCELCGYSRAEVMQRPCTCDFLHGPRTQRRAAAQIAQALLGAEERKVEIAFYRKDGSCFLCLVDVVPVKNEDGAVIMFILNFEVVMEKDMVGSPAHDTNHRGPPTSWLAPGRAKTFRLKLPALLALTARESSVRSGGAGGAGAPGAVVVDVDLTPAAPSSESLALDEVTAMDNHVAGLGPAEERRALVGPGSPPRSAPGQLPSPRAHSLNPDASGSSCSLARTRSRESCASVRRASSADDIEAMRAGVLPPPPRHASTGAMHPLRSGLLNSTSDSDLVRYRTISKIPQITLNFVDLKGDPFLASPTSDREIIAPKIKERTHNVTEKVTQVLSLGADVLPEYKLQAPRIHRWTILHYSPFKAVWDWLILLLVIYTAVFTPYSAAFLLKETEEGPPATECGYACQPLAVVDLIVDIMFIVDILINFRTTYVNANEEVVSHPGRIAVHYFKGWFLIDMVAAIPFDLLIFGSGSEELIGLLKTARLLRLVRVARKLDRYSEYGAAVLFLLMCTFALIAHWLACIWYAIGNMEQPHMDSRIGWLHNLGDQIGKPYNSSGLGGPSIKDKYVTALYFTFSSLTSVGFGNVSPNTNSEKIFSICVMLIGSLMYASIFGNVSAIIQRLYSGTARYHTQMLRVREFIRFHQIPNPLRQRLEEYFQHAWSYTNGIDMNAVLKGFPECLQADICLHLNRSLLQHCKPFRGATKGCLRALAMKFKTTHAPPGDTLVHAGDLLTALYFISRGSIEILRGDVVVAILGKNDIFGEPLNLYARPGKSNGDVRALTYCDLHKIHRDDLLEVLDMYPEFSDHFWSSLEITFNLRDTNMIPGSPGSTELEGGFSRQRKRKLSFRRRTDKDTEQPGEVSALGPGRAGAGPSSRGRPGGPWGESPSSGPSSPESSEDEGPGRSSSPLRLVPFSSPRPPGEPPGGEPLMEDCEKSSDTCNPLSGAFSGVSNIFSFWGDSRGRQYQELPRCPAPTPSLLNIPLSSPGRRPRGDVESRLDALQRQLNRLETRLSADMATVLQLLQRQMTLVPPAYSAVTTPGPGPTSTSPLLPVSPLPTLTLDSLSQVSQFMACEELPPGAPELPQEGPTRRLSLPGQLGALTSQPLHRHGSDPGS

Broadly, the half-life is how long it takes for the measured level to halve. High values mean slow decline, low ones rapid decline. Broadly, the IC50 is the concentration that gives 50% inhibition. The term Ki denotes a measure of affinity in units of concentration, obtained from inhibition or displacement. Low readings indicate tighter binding, high ones weaker binding. Regarding `CC(C)[C@@H]1CC[C@@H](C)C[C@]12NC(=O)C(CC(=O)c1ccccc1)C2=O` (some centres unmarked) [closest compound], the CLint scaled at 1 microM in series [1] (human, pH 7.4, read-out: intrinsic clearance (CLint)) is over 215 mL/min/kg. In series [1] (pH 7.4, 1 microM), the half-life at 1 microM was under 5 min. In series [2], this molecule registered a half-inhibitory concentration (IC50) of 19 µM and a Ki of 6.5 µM.
`Cc1ccnnc1-c1ccc(C(=O)CN2C(=O)NC3(CCCCCC3)C2=O)cc1` [Example 5-26]: the IC50 in series [3] is under 0.1 µM.
